Data reported in ChEMBL document CHEMBL1201862, “PubChem BioAssay data set” (2004).
Active and inactive are the calls of the source.

Columns and labels:
[1] = viability of uninfected HEp-2 cells – cell-based, HTS, cytotoxicity control for RSV inhibitor project, dose response (AID 2410); assay type: functional; details: human respiratory syncytial virus
[2] = target: T1, X-box-binding protein 1 (Homo sapiens, UniProt P17861); assay type: functional, Cricetulus griseus;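 note: confirmatory dose-response counter-screen serving a CHOP assay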
T1 sequence (P17861 whole entry): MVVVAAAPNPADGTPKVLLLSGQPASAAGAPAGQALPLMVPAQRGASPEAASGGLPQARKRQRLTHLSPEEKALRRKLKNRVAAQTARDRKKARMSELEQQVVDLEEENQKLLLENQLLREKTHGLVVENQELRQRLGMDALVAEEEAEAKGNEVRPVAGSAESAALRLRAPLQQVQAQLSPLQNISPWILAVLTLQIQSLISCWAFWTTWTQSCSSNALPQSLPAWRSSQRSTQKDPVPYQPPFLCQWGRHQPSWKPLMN

[3] = target: T2, Protein skinhead-1 (Caenorhabditis elegans, UniProt P34707); assay type: functional
T2 sequence (P34707 whole entry): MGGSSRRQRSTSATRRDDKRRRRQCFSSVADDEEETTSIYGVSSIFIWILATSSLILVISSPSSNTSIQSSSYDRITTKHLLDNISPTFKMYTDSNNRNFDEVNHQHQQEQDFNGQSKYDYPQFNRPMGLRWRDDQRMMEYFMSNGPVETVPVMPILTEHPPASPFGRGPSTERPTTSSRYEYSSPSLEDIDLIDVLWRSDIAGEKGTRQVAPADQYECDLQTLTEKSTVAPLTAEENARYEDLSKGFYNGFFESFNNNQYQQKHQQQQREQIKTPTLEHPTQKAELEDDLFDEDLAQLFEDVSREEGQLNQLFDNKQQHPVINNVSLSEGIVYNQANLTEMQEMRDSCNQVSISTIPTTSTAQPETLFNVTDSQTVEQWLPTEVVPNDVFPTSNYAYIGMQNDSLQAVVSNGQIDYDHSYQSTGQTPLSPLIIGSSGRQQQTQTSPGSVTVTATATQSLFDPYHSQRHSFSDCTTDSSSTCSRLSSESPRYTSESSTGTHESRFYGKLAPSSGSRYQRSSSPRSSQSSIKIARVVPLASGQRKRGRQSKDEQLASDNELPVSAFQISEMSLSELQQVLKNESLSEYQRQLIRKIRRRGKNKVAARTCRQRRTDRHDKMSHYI

[4] = target: T3, Sphingosine 1-phosphate receptor 4 (Homo sapiens, UniProt O95977); assay: Fluorescence dose response cell-based high throughput screening assay for antagonists of the Sphingosine 1-Phosphate Receptor 4 (S1P4). [Related pubchem assays: 1524 (Confirmation in triplicates.), 1510 (Primary screen.)]; assay type: functional
T3 sequence (O95977 whole entry): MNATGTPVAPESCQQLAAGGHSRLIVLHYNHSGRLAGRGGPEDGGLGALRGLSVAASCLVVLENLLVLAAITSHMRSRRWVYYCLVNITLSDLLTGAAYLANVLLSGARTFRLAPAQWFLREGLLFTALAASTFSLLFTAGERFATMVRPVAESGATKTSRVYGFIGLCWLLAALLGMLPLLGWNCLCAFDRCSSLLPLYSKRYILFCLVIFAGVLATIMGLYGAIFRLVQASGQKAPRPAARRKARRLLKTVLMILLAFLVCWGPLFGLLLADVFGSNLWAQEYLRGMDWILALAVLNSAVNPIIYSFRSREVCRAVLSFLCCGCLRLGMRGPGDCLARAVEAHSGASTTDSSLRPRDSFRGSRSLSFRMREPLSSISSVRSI

[5] = target: T4, Rac GTPase-activating protein 1 (Homo sapiens, UniProt Q9H0H5); assay: blockers of MgcRacGAP-driven Rac1 GTP hydrolysis – biochemical, ADP Hunter fluorescence, primary and confirmatory, confirmation (AID 624330); assay type: functional
T4 sequence (Q9H0H5 whole entry): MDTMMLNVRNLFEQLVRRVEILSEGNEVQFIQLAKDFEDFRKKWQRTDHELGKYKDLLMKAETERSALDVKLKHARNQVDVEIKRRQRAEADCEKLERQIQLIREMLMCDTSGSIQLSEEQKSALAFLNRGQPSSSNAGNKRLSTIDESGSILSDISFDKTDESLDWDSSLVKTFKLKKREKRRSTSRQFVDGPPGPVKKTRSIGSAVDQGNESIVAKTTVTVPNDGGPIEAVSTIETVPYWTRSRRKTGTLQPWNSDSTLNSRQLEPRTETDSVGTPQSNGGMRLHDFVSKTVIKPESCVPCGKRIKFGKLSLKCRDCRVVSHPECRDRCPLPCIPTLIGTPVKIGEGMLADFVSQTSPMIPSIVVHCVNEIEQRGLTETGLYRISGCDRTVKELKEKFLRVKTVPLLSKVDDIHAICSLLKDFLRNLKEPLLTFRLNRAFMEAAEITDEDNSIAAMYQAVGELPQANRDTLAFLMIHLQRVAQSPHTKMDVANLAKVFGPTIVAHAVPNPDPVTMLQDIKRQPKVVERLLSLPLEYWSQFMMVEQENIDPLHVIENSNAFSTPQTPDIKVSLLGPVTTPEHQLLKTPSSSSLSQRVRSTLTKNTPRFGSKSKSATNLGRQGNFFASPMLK

[6] = target: 1-phosphatidylinositol 4,5-bisphosphate phosphodiesterase beta-3 (Homo sapiens, UniProt Q01970); assay: Fluorescence-based biochemical high throughput dose response assay to identify inhibitors of phospholipase C isozymes (PLC-B3).
[7] = target: T5, Sentrin-specific protease 8 (Homo sapiens, UniProt Q96LD8); assay type: functional
T5 sequence (Q96LD8 whole entry): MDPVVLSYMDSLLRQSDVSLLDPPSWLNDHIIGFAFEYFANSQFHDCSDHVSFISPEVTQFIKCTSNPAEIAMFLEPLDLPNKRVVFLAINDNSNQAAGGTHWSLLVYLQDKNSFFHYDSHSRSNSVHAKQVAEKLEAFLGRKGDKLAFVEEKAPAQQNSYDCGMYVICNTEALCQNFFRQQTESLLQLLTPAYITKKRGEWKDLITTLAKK

[8] = target: Glutathione-S-transferase (Schistosoma japonicum, UniProt Q26513); assay: GST-antibody interaction or FRET quenching – biochemical, TR-FRET, artefact control for Vif-APOBEC3G degradation inhibitor project, dose response (AID 1117362); assay type: functional
Sequence of Glutathione-S-transferase (Q26513 whole entry): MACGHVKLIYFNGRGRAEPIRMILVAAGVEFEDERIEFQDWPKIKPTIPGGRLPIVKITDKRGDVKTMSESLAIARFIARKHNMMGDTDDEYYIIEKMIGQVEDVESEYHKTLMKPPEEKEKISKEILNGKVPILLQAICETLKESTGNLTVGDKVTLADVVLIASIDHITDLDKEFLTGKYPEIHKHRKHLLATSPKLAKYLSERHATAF

Sequence of 1-phosphatidylinositol 4,5-bisphosphate phosphodiesterase beta-3 (Q01970 whole entry): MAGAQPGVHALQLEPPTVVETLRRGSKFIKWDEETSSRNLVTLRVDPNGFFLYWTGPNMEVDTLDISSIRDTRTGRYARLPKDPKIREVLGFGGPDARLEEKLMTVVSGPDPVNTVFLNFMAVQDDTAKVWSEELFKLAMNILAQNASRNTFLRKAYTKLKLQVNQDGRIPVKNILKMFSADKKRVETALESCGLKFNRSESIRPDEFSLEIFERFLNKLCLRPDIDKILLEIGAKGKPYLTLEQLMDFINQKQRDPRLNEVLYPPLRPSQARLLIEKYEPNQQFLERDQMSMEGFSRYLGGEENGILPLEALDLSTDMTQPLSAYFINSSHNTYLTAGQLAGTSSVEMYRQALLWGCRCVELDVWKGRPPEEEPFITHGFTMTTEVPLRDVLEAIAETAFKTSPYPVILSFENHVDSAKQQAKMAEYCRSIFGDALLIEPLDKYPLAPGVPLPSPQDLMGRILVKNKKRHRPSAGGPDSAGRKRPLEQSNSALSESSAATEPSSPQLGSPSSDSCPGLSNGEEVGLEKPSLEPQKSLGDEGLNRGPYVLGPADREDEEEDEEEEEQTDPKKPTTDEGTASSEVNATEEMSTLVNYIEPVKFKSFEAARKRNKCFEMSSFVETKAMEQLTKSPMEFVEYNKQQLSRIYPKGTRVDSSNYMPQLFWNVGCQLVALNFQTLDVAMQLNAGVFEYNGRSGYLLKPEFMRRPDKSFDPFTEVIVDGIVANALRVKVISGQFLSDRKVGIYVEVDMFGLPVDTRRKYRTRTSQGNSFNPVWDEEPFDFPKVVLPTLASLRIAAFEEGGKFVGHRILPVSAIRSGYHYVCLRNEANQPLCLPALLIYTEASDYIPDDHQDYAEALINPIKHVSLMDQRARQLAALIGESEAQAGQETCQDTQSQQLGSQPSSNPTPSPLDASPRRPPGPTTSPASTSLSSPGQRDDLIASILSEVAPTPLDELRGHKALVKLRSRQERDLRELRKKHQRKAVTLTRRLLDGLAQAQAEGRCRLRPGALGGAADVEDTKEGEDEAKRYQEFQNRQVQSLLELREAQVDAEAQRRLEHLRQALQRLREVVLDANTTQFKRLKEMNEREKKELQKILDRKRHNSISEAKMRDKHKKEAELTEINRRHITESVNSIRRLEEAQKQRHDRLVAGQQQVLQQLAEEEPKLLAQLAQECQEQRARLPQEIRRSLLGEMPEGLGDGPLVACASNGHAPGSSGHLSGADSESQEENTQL

## CCc1nnc(NS(=O)(=O)c2ccc(NC(=S)NC(=O)/C=C/c3ccc(C(C)C)cc3)cc2)s1
[1]
  CC50: 17.2 µM (active)
[2]
  Absolute IC50 (XBP1): 10 µM

## O=C(/C=C/c1ccco1)Nc1ccc(Oc2ccccc2)cc1
[3]
  IC50: > 100 µM (inactive)

## O=C1C(Nc2ccc(O)cc2)=C/C(=N/S(=O)(=O)c2cccs2)c2ccccc21
[4]
  IC50: 1.65 µM (active)
[5]
  IC50: 41.8 µM (active)
[6]
  IC50: > 40.8 µM (inactive)

## COC(=O)C(O)(c1c(C)[nH]n(-c2ccccc2)c1=O)C(F)(F)F (stereo not drawn)
[7]
  IC50: 2.43 µM (active)

## CC1CC(=O)c2c(cc3c(-c4c(O)cc(O)c5c(O)c6c(cc45)OC(C)CC6=O)c(O)cc(O)c3c2O)O1 (stereo not drawn) [CEPHALOCHROMIN]
[8]
  IC50: > 100 µM (active)
